According to patent US5695970A, “Glucan lyase producing 1,5-anhydrofructose” (priority 1992, dated 1997):
Entries after “also recorded” stand apart in the source; their conditions may differ.

Assays:
Assay type in all cases: biochemical, Gracilariopsis lemaneiformis
[1] = test system: α-1,4-glucan lyase; experiment: Inhibition studies of α-1,4-glucan lyase activity; settings: for inhibition of the algal enzyme (in words): summary statement; for inhibition of enzymic activity: 0.1M; for inhibition of the enzyme: 50mM
Protocol: (§1) The reaction mixture for the assay of α-1,4-glucan lyase was composed of 240 μl 62.5 mM Mops-NaOH containing 6 mg soluble starch (pH 6.2), the enzyme preparation and distilled water to a final volume of 300 μl. The reaction was carried out at 30° C. for 10-30 min. Liberated 1,5-anhydrofructose was determined by monitoring the absorbance at 546 nm after the addition of 3,5-dinitrosalicylic acid reagent. Soluble starch in the reaction mixture may be replaced by other substrates and the final substrate concentration may be varied as indicated in the text. The reaction time and enzyme concentration used in enzyme activity assay have been chosen to ensure the linearity of the reaction rate. One unit of α-1,4-glucan lyase activity is defined as the amount of enzyme which liberates 1μmol of 1,5-anhydrofructose min^-1 under the conditions described above.

[2] = test system: α-1,4-glucan lyase; experiment: Substrate specificity of α-1,4-glucan lyase, long term incubation (24 h), continuation of Table IV; settings: for Product released: 24 h; for release of 1,5-anhydrofructose and glucose checked by TLC on Silica gel 60: after 24 h of incubation; for activity of the lyase with the substrate (in words): long term incubation at 30° C.
Protocol: The incubation time was 24 h.
as §1

[3] = test system: α-1,4-glucan lyase; experiment: Substrate specificity of α-1,4-glucan lyase (release of 1,5-anhydrofructose, DNS method, 15 min); settings: incubation 15 min
Protocol: When amylopectin was used as a substrate, the activity reached maximum 8 mg ml^-1 and then decreased slightly at 20 mg ml^-1. The same results were obtained with soluble starch and maltoheptaose. When maltotriose and maltose were used as substrates, the activity reached maximum at 2 mg ml^-1 and 6 mg ml^-1, respectively. Substrate inhibition became evident at higher concentrations, especially in the case of maltotriose. […] Generally, the inhibition degree decreased with the increase in DP number (Degree of Polymerization). When the activity measured at 10 mg ml^-1 was compared at 2 mg ml^-1 and 4 mg ml^-1, substrate inhibition could be clearly seen among the maltosaccharides of DP 3-5. In maltohexaose, the substrate inhibition was very low and was none in maltoheptaose. Among the maltosaccharides, maltotetraose and maltopentaose were the poorest substrates.
With PNPG1 (p-nitrophenyl-α-D-glucoside), the artificial substrate of α-glucosidase, reaction rate was the lowest.
Substrate Specificity of α-1,4-Glucan lyase.
The concentration of various substrates in the reaction mixture
was 10 mg ml^-1 except PNPG1, PNPG2, PNPG7, which was 2 mM.
The incubation time was 15 min. The degrading rate of maltoheptaose
was 84 μmol min^-1. mg^-1 protein.
as §1

[4] = inhibitor 2 mM, amylopectin as substrate
[5] = inhibitor 2 mM, maltose as substrate
[6] = substrate 4 mg ml^-1, 1.64 μg enzyme
[7] = substrate 10 mg ml^-1, 1.64 μg enzyme
[8] = substrate 10 mM, 1.64 μg enzyme

OC[C@H]1NC[C@H](O)[C@@H](O)[C@@H]1O [Deoxynojirimycin, deoxynojirimycin]
inhibition of enzyme activity ([1]; inhibitor 0.165 mM, maltose as substrate): inhibit the activity completely | inhibition of enzyme activity [1, 4]: completely inhibited | inhibition of enzyme activity [1, 5]: completely inhibited | inhibition of the algal enzyme (in words) ([1]; no concentration): strongly inhibited

OC[C@@H](O)[C@@H](O[C@H]1O[C@H](CO)[C@@H](O)[C@H](O)[C@H]1O)[C@H](O)[C@@H](O)CO [Maltitol, maltitol]
Product released [2, 6]: 122.4 nmol | inhibition of enzymic activity ([1]; amylopectin as substrate): ~27% | inhibition of enzymic activity ([1]; maltose as substrate): around 47% | type of inhibition ([1]; maltose as substrate): competitive | inhibition of the algal enzyme (in words) ([1]; maltose as substrate): inhibited

[Ca+2].[Cl-].[Cl-] [CaCl2]
inhibition of the enzyme ([1]; amylopectin as substrate): no inhibition | inhibition of the enzyme ([1]; maltose as substrate): no inhibition

O=[N+]([O-])c1ccc(O[C@H]2O[C@H](CO)[C@@H](O)[C@H](O)[C@H]2O)cc1 [PNPG1, p-nitrophenyl-α-D-glucoside]
Activity (% of Maltoheptaose) ([3]; substrate 2 mM): 0.113%

soluble starch
Activity (% of Maltoheptaose) ([3]; substrate 10 mg ml^-1): 100.2%

floridean starch
Activity (% of Maltoheptaose) ([3]; substrate 10 mg ml^-1): 61.9%

O[C@H]1[C@H](O)[C@@H](O)[C@H](O)[C@@H](O)[C@H]1O [inositol]
inhibition of enzymic activity ([1]; amylopectin as substrate): no inhibition | inhibition of enzymic activity ([1]; maltose as substrate): no inhibition

[Cl-].[Cl-].[Mg+2] [MgCl2]
inhibition of the enzyme ([1]; amylopectin as substrate): no inhibition | inhibition of the enzyme ([1]; maltose as substrate): no inhibition

OC[C@H]1O[C@H](OC[C@H]2OC(O)[C@H](O)[C@@H](O)[C@@H]2O)[C@H](O)[C@@H](O)[C@@H]1O (stereo partly shown) [Isomaltose, isomaltose]
release of 1,5-anhydrofructose and glucose checked by TLC on Silica gel 60 [2]: No 1,5-anhydrofructose and glucose were released | Product released [2, 6]: 0 nmol

O=[N+]([O-])c1ccc(O[C@H]2O[C@H](CO)[C@@H](O)[C@H](O)[C@@H]2O)cc1 [PNPMan, p-introphenyl-α-D-mannoside]
activity of the lyase with the substrate (in words) [2]: no activity | Product released ([2]; substrate 2 mM, 1.64 μg enzyme): 0 nmol

OC[C@H]1O[C@H](O[C@H]2O[C@H](CO)[C@@H](O)[C@H](O)[C@H]2O)[C@H](O)[C@@H](O)[C@@H]1O [Trehalose, trehalose]
release of 1,5-anhydrofructose and glucose checked by TLC on Silica gel 60 [2]: No 1,5-anhydrofructose and glucose were released | Product released [2, 7]: 0 nmol | inhibition of enzymic activity ([1]; amylopectin as substrate): no inhibition | inhibition of enzymic activity ([1]; maltose as substrate): no inhibition

[Cl-].[K+] [KCl]
inhibition of the enzyme ([1]; amylopectin as substrate): no inhibition | inhibition of the enzyme ([1]; maltose as substrate): no inhibition

O=C(O)c1cc[c]([Hg][Cl])cc1 [PCMB, p-chloromercuribenzoic acid]
inhibition of enzyme activity [1, 4]: around 90% | inhibition of enzyme activity [1, 5]: around 90% | inhibition of the algal enzyme (in words) ([1]; no concentration): strongly inhibited

OC[C@H]1O[C@H](OC[C@H]2O[C@H](O[C@H]3[C@H](O)[C@@H](O)C(O)O[C@@H]3CO)[C@H](O)[C@@H](O)[C@@H]2O)[C@H](O)[C@@H](O)[C@@H]1O (stereo partly shown) [Panose, panose]
Product released [2, 6]: 13465.6 nmol

OC[C@H]1O[C@@H](O[C@H]2[C@H](O)[C@@H](O)C(O)O[C@@H]2CO)[C@H](O)[C@@H](O)[C@@H]1O (stereo partly shown) [Cellobiose, cellobiose]
release of 1,5-anhydrofructose and glucose checked by TLC on Silica gel 60 [2]: No 1,5-anhydrofructose and glucose were released | Product released [2, 6]: 0 nmol

OC[C@H]1O[C@H](OC[C@H]2OC(O)[C@H](O)[C@@H](O)[C@@H]2O)[C@H](O)[C@@H](O)[C@H]1O (stereo partly shown) [Melibiose, melibiose]
release of 1,5-anhydrofructose and glucose checked by TLC on Silica gel 60 [2]: No 1,5-anhydrofructose and glucose were released | Product released [2, 7]: 0 nmol | inhibition of enzymic activity ([1]; amylopectin as substrate): no inhibition | inhibition of enzymic activity ([1]; maltose as substrate): no inhibition

[Cl][Mn][Cl] [MnCl2]
inhibition of the enzyme ([1]; amylopectin as substrate): no inhibition | inhibition of the enzyme ([1]; maltose as substrate): no inhibition

O=[N+]([O-])c1ccc(O[C@H]2O[C@H](CO)[C@H](O)[C@H](O)[C@H]2O)cc1 [PNPGal, p-nitrophenyl-α-D-galactoside]
activity of the lyase with the substrate (in words) [2]: no activity | Product released ([2]; substrate 2 mM, 1.64 μg enzyme): 0 nmol

[Cl][Hg][Cl] [HgCl2]
inhibition of the algal enzyme (in words) ([1]; no concentration): strongly inhibited

xylose
inhibition of enzymic activity ([1]; amylopectin as substrate): no inhibition | inhibition of enzymic activity ([1]; maltose as substrate): no inhibition

OC[C@H]1O[C@@H]2O[C@H]3[C@H](O)[C@@H](O)[C@@H](O[C@H]4[C@H](O)[C@@H](O)[C@@H](O[C@H]5[C@H](O)[C@@H](O)[C@@H](O[C@H]6[C@H](O)[C@@H](O)[C@@H](O[C@H]7[C@H](O)[C@@H](O)[C@@H](O[C@H]1[C@H](O)[C@H]2O)O[C@@H]7CO)O[C@@H]6CO)O[C@@H]5CO)O[C@@H]4CO)O[C@@H]3CO [Cyclohexaamylose, cyclohexaamylose]
release of 1,5-anhydrofructose and glucose checked by TLC on Silica gel 60 [2]: No 1,5-anhydrofructose and glucose were released | Product released ([2]; substrate 20 mM, 1.64 μg enzyme): 0 nmol | inhibitory effect on the enzyme activity ([1]; 4 mM, maltose as substrate): no inhibitory effect | inhibitory effect on the enzyme activity ([1]; 4 mM, soluble starch as substrate): no inhibitory effect

OCC(O)CO [glycerol]
inhibition of enzymic activity ([1]; amylopectin as substrate): no inhibition | inhibition of enzymic activity ([1]; maltose as substrate): no inhibition

blocked p-nitrophenyl-α-D-maltoheptaoside [BPNPG7]
activity of the lyase with the substrate (in words) [2]: very low degrading rate; also recorded: little or no activity | Product released ([2]; substrate 2 mM, 4.91 μg enzyme): 6.16 nmol

Nc1ncnc2c1ncn2[C@@H]1O[C@H](COP(=O)(O)OP(=O)(O)O[C@H]2O[C@H](CO)[C@@H](O)[C@H](O)[C@H]2O)[C@@H](O)[C@H]1O [ADP-Glucose]
Product released ([2]; substrate 5 mM, 1.64 μg enzyme): 0 nmol

OC[C@H]1O[C@@H](O[C@H]2[C@H](O)[C@@H](O)C(O)O[C@@H]2CO)[C@H](O)[C@@H](O)[C@H]1O (stereo partly shown) [Lactose, lactose]
release of 1,5-anhydrofructose and glucose checked by TLC on Silica gel 60 [2]: No 1,5-anhydrofructose and glucose were released | Product released [2, 7]: 0 nmol | inhibition of enzymic activity ([1]; amylopectin as substrate): no inhibition | inhibition of enzymic activity ([1]; maltose as substrate): no inhibition

O=P(O)(O)O[C@H]1O[C@H](CO)[C@@H](O)[C@H](O)[C@H]1O [Glucose 1-Phosphate]
Product released [2, 8]: 0 nmol

arabinose
inhibition of enzymic activity ([1]; amylopectin as substrate): no inhibition | inhibition of enzymic activity ([1]; maltose as substrate): no inhibition

OC[C@@H](O)[C@@H](O)[C@H](O)[C@@H](O)CO [sorbitol]
inhibition of enzymic activity ([1]; amylopectin as substrate): no inhibition | inhibition of enzymic activity ([1]; maltose as substrate): no inhibition

CO[C@H]1O[C@H](CO)[C@@H](O)[C@H](O)[C@H]1O [Methyl α-D-glucoside, methyl α-D-glucoside]
release of 1,5-anhydrofructose and glucose checked by TLC on Silica gel 60 [2]: No 1,5-anhydrofructose and glucose were released | Product released [2, 8]: 0 nmol | inhibitory effect on the enzyme activity ([1]; 12 mM, maltose as substrate): no inhibitory effect | inhibitory effect on the enzyme activity ([1]; 12 mM, soluble starch as substrate): no inhibitory effect

OC[C@H]1O[C@H](O[C@H]2[C@H](O)[C@@H](CO)OC(O)[C@@H]2O)[C@H](O)[C@@H](O)[C@@H]1O (stereo partly shown) [Nigerose, nigerose]
activity of the lyase with the substrate (in words) [2]: able to degrade | Product released [2, 6]: 13452.8 nmol

OC[C@H]1O[C@@](CO)(O[C@H]2O[C@H](CO)[C@@H](O)[C@H](O)[C@H]2O)[C@@H](O)[C@@H]1O [Sucrose, sucrose]
release of 1,5-anhydrofructose and glucose checked by TLC on Silica gel 60 [2]: No 1,5-anhydrofructose and glucose were released | Product released [2, 7]: 0 nmol | inhibition of enzymic activity ([1]; amylopectin as substrate): no inhibition | inhibition of enzymic activity ([1]; maltose as substrate): no inhibition
